Laboratory results published in patent US20240269139A1, “COMPOUNDS FOR TARGETED PROTEIN DEGRADATION OF KINASES” (DANA-FARBER CANCER INSTITUTE, INC., priority 2020, published 2024).
Like-named read-outs stand apart in the source and are kept apart here.

How the values were obtained:
[1] = biological target: protein kinases (human kinome) (Homo sapiens, UniProt P53671); type: cell-based; conditions: for logFC LIMK2: LIMK2 (P53671), down; for logFC of LIMK2: LIMK2 P53671
[2] = biological target: T1, protein kinases (human kinome) (Homo sapiens, UniProt Q9NYY8); type: cell-based; conditions: direction down
T1 sequence (Q9NYY8 1-710): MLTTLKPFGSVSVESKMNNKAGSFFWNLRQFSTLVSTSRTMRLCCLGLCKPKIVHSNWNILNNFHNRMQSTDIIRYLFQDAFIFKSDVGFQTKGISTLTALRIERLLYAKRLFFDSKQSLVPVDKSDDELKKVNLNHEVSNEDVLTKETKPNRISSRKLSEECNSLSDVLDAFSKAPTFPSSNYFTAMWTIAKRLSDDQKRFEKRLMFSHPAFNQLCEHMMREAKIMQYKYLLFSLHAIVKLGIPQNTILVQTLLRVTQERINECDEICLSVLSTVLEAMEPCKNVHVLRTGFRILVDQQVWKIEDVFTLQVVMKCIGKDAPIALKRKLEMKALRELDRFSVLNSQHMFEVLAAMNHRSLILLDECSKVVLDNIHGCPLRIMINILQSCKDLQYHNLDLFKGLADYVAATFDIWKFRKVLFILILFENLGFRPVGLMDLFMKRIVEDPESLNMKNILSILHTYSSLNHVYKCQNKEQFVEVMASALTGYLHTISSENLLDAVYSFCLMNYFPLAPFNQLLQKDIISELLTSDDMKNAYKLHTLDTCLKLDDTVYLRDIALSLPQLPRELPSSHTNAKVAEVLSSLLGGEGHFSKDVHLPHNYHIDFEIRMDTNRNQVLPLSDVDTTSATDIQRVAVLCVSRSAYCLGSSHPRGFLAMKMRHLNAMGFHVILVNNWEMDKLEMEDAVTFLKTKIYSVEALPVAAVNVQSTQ

[3] = tested on: protein kinases (human kinome); type: cell-based; conditions: for logFC of LIMK2: LIMK2 P53671-3; for logFC PDK3: PDK3 (Q15120-2); for logFC ABL1: ABL1 (P00519-2); for logFC of SRC: Accession P12931-2; for logFC LCK: accession P06239-3; for logFC LCK / logFC LCK (P06239-3): direction of change down
[4] = biological target: T2, extended human kinome (kinase-like proteins) (Homo sapiens, UniProt P54886); test: Whole cell quantitative proteomics: extended kinome hits; conditions: Accession P54886
T2 sequence (P54886 1-795): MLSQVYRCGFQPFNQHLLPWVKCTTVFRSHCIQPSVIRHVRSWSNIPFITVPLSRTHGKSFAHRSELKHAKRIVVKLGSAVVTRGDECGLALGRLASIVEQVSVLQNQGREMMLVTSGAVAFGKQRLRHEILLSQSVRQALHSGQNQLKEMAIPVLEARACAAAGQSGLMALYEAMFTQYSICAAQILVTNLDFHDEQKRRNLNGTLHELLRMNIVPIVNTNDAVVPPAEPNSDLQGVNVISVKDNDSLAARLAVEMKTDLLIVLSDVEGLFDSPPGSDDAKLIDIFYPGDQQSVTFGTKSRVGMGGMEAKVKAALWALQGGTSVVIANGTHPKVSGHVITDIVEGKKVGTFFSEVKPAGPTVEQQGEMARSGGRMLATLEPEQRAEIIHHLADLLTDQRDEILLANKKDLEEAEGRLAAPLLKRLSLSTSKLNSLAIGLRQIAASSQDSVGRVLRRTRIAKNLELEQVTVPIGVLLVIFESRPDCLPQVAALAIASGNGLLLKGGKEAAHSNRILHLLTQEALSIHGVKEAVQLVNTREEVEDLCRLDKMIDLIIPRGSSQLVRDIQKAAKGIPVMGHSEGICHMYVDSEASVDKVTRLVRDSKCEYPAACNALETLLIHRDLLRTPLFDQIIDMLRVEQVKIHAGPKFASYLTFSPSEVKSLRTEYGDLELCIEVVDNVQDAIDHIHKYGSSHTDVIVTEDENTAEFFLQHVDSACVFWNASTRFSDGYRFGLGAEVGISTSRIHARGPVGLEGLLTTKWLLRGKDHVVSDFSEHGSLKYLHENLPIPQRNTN

[5] = biological target: protein kinases (human kinome) (Homo sapiens, UniProt P51451); type: cell-based; conditions: for logFC BLK: BLK (P51451), direction down; for logFC of BLK (P51451): down
protein kinases (human kinome) (Homo sapiens, UniProt P51451), sequence (P51451 whole entry): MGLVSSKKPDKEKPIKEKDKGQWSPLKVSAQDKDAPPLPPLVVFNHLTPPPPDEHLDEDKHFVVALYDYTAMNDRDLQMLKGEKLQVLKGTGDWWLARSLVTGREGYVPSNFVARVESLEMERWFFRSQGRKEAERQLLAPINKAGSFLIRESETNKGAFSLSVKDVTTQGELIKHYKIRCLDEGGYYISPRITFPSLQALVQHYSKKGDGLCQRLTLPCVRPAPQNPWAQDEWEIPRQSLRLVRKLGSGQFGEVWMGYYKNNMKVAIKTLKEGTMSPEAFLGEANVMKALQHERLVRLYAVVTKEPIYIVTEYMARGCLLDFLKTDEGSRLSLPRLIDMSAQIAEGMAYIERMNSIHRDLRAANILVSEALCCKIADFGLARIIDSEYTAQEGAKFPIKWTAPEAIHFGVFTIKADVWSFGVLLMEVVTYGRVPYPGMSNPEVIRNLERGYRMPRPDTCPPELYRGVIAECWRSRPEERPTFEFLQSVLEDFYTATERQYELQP

protein kinases (human kinome) (Homo sapiens, UniProt P53671), sequence (P53671 whole entry): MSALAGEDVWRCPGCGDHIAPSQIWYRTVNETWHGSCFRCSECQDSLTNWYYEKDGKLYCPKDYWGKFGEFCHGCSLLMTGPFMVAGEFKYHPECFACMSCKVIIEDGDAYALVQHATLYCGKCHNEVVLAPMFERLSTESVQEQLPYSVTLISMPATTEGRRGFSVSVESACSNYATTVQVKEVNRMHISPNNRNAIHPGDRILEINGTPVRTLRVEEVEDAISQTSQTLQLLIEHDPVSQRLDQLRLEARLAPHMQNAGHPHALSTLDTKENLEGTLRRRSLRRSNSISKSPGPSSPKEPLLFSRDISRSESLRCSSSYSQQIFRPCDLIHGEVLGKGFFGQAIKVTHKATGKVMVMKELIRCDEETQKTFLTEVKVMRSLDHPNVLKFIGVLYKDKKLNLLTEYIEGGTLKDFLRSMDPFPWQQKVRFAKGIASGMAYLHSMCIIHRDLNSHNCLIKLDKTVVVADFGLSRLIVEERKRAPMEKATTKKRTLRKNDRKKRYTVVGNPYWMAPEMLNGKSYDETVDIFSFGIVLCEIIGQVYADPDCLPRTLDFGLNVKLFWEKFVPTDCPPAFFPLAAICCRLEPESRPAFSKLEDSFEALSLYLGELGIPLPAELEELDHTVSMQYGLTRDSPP

CC(C)(C)c1nc(-c2cccc(NS(=O)(=O)c3c(F)cccc3F)c2F)c(-c2ccnc(NCCOCCNC(=O)CCOCCOCCNc3cccc4c3C(=O)N(C3CCC(=O)NC3=O)C4=O)n2)s1 (stereo not shown) [DD.03.106]
logFC LIMK2 ([1]; experiment wp137): −1.026 | logFC of LIMK2 ([1]; experiment wp137): −1.026 | logFC FASTKD2 (Q9NYY8) ([2]; Experiment wp147, 2 uM): −0.3392 | logFC FASTKD2 (Q9NYY8) ([2]; Experiment wp147, 4 uM): −0.9073 | logFC ([3]; ACAD10 (Q6JQN1-5), experiment wp147, 4 uM): −0.7404 | logFC of CDK17 ([3]; Accession Q00537-2, experiment wp137): −0.8682 | logFC MAP3K20 (Q9NYL2-2) ([3]; Experiment wp147, 2 uM): −0.7388 | logFC MAP3K20 (Q9NYL2-2) ([3]; Experiment wp147, 4 uM): −0.4901 | logFC ([3]; GK P32189-3, experiment wp147, 4 uM): −0.4811 | logFC ([3]; LIMK2 (P53671-3), experiment wp047, direction down): −0.962 | logFC ([3]; LIMK2 (P53671-3), experiment wp147, 1 uM, direction down): −0.8736 | logFC ([3]; LIMK2 (P53671-3), experiment wp147, 2 uM, direction down): −1.082 | logFC ([3]; LIMK2 (P53671-3), experiment wp147, 4 uM, direction down): −0.9319 | logFC of LIMK2 ([3]; experiment wp047): −0.962 | logFC of LIMK2 ([3]; experiment wp147, 1 uM): −0.8736 | logFC of LIMK2 ([3]; experiment wp147, 2 uM): −1.082 | logFC of LIMK2 ([3]; experiment wp147, 4 uM): −0.9319 | logFC PDK3 ([3]; experiment wp137): −0.3571 | logFC PDK3 ([3]; experiment wp147, 4 uM): −0.6564 | logFC CDK16 (Q00536-2) ([3]; experiment wp137): −1.175 | logFC PDK3 (Q15120-2) ([3]; experiment wp137): −0.3571 | logFC of CDK17 (Q00537-2) ([3]; experiment wp137): −0.8682 | logFC CDK16 (Q00536-2) ([3]; experiment wp147, 1 uM): −0.5427 | logFC CDK16 (Q00536-2) ([3]; experiment wp147, 2 uM): −0.5385 | logFC MAP3K20 (Q9NYL2-2) ([3]; experiment wp147, 2 uM): −0.7388 | logFC CDK16 (Q00536-2) ([3]; experiment wp147, 4 uM): −0.4393 | logFC MAP3K20 (Q9NYL2-2) ([3]; experiment wp147, 4 uM): −0.4901 | logFC ALDH18A1 ([4]; experiment wp147, 1 uM): −0.3463 | logFC ALDH18A1 ([4]; experiment wp147, 4 uM): −0.8823

Cn1c(=O)c(-c2c(Cl)cccc2Cl)cc2cnc(Nc3ccc(OCCNC(=O)CCCCCCNC(=O)COc4cccc5c4C(=O)N(C4CCC(=O)NC4=O)C5=O)cc3)nc21 (stereo not shown) [SB1.G.192.1]
logFC LIMK2 ([1]; experiment wp081): −0.371 | logFC LIMK2 ([1]; experiment wp131): −0.5544 | logFC of LIMK2 ([1]; experiment wp081): −0.371 | logFC of LIMK2 ([1]; experiment wp131): −0.5544 | logFC FASTKD2 (Q9NYY8) ([2]; Experiment wp081): −0.3577 | logFC ABL1 ([3]; experiment wp071): −1.417 | logFC ABL1 ([3]; experiment wp081): −1.189 | logFC FYN ([3]; Accession P06241-2, experiment wp071): −1.595 | logFC FYN ([3]; Accession P06241-2, experiment wp081): −0.9994 | logFC FYN ([3]; Accession P06241-2, experiment wp131): −0.9918 | logFC of SRC ([3]; experiment wp071): −2.578 | logFC of SRC ([3]; experiment wp081): −2.113 | logFC of SRC ([3]; experiment wp131): −2.127 | logFC TNK2 (Q07912-3) ([3]; Experiment wp071, direction down): −1.728 | logFC TNK2 (Q07912-3) ([3]; Experiment wp081, direction down): −0.9024 | logFC FYN ([3]; FYN P06241-2, experiment wp071): −1.595 | logFC FYN ([3]; FYN P06241-2, experiment wp081): −0.9994 | logFC FYN ([3]; FYN P06241-2, experiment wp131): −0.9918 | logFC LCK ([3]; experiment wp071): −1.767 | logFC LCK ([3]; experiment wp131): −1.701 | logFC ([3]; TNK2 (Q07912-3), experiment wp071, direction down): −1.728 | logFC ([3]; TNK2 (Q07912-3), experiment wp081, direction down): −0.9024 | logFC ABL1 (P00519-2) ([3]; experiment wp071): −1.417 | logFC LCK (P06239-3) ([3]; experiment wp071): −1.767 | logFC ABL1 (P00519-2) ([3]; experiment wp081): −1.189 | logFC ABL2 (P42684-5) ([3]; experiment wp131): −2.8 | logFC of ABL2 (P42684-5) ([3]; experiment wp131): −2.8 | logFC LCK (P06239-3) ([3]; experiment wp131): −1.701 | logFC BLK ([5]; experiment wp071): −2.399 | logFC BLK ([5]; experiment wp081): −2.013 | logFC BLK ([5]; experiment wp131): −2.465 | logFC of BLK (P51451) ([5]; Experiment wp071): −2.399 | logFC of BLK (P51451) ([5]; Experiment wp081): −2.013 | logFC of BLK (P51451) ([5]; Experiment wp131): −2.465 | logFC ALDH18A1 ([4]; experiment wp081): −0.39
